Source: patent US20100323990A1, “SHIP 1 MODULATOR PRODRUGS” (THE UNIVERSITY OF BRITISH COLUMBIA, priority 2006, published 2010)

Assays:
J774.1a macrophage cells [1] = test: Macrophage TNF-α NO assay (Assay 3), Griess reagent; assay type: cell-based; conditions: 10 μg/ml test compound, LPS, supernatants after 24 hr; note: key: a ‘+’ indicates a positive result for desired activity; a ‘−’ indicates a negative result for desired activity
Description: (§1) Assay 1) In vitro testing in a SHIP enzyme assay. Test compounds were dissolved in a suitable solvent (e.g. EtOH, DMSO and others) and diluted into aqueous buffer (20 mM Tris HCl, pH 7.5 and 10 mM MgCl2). SHIP enzyme assays were performed in 96-well microtitre plates with 10 ng of enzyme/well in a total volume of 25 μL of 20 mM Tris HCl, pH 7.5 and 10 mM MgCl2. SHIP enzyme was incubated with test extracts (provided in solvent) or vehicle for 15 min at 23° C. before the addition of 100 μM inositol-1,3,4,5-tetrakisphosphate (Echelon Biosciences Inc, Salt Lake City, Utah). After 20 min at 37° C. and the amount of inorganic phosphate released assessed by the addition of Malachite Green reagent and absorbance measurement at 650 nm. Assay 2) Macrophage TNF-α production. J774.1a macrophage cells were treated with 10 μg/mL of test compound dissolved in solvent (e.g. cyclodextran) for 40 minutes prior to the addition of 100 ng/mL LPS. Culture supernatants were collected after 2 hr and 5 hr for TNF-α determination by ELISA. Assay 3) Macrophage TNF-α NO assay. J774.1a macrophage cells were treated with 10 μg/ml of test compound dissolved in solvent for 40 minutes prior to the addition of LPS. Culture supernatants were collected after 24 hr. for determination of NO concentration using the Griess reagent. Assay 4) Stimulation of mast cells by FcεRI crosslinking. Mast cells were pre-loaded overnight in BMMC medium lacking IL-3 with 0.1 μg/ml anti-DNP IgE (SPE-7, Sigma, Oakville, Ont). For calcium flux measurements, cells were incubated with 2 μM fura 2-acetoxymethyl ester (Molecular Probes, Eugene, Oreg.) in Tyrode's buffer at 23° C. for 45 min. Cells were then washed and incubated in the presence of the test compound 30 min prior to stimulation with the indicated concentration of DNP-human serum albumin (DNP-HSA). Calcium influx was monitored by spectrofluorometry as described previously. For analysis of intracellular signaling, cells were pre-loaded with anti-DNP IgE as above, pre-treated with the test compound for 30 min at 37° C. and stimulated with 20 ng/ml DNP-HSA for 5 min. Total cell lysates were then prepared and analyzed for phospho-PKB, phospho-p38^MAPK, phospho-MAPK, Grb-2 (Cell Signalling, Mississauga, Ont) and SHIP^6 by immunoblot analysis. Assay 5) Mouse acute cutaneous anaphylaxis model. 6-8 week old CD1 mice (University of British Columbia Animal Facility, Vancouver, BC) were sensitized to the hapten DNP by cutaneous application of 25 μL of 0.5% dinitrofluorobenzene (DNFB) (Sigma, Oakville, Ont) in acetone to the shaved abdomen of mice for two consecutive days. 24 hrs later, test substances (dissolved in 10 μL of 1:2 DMSO:MeOH) were painted on the right ear while the left ear received vehicle control. 30 min after drug application, DNFB was applied to both ears to induce mast cell degranulation. A 6 mm punch was taken from the ear and immediately frozen on dry ice for subsequent determination of neutrophil myeloperoxidase (MPO) activity. Assay 6) Mouse endotoxemia model. 6-8 week old C57B16 mice (VCHRI Mammalian Model of Human Disease Core Facility, Vancouver, BC) were orally administered the test compound 30 min prior to an IP injection of 2 mg/kg of LPS (E. Coli serotype 0111:B4, Sigma, Oakville, Ont). Blood was drawn 2 hrs later for determination of plasma TNFα by ELISA. Assay 7) In vitro Mulitple Myeloma (MM) assay. The ability of SHIP activators to reduce tumor cell survival was assessed in MM cell lines treated with the test compound. The lines OPM1, OPM2, MM.1S and RPMI 8226 were plated at a density of 1×10^5 cells/mL in 200 μL of medium with various concentrations of the test compound, and viable cell numbers were determined on day 3 and day 5 by trypan blue exclusion. The lines RPMI 8226 and U266 were plated at a density of 1×10^6 cells/mL in 250 μL of medium with various concentrations of the test compound. At day 4, the medium of each culture was replaced by fresh medium containing the same concentration of test compound. […]

SHIP enzyme = test: In vitro SHIP enzyme assay (Assay 1), phosphate release by Malachite Green; assay type: biochemical; conditions: 10 ng enzyme/well, 100 μM inositol-1,3,4,5-tetrakisphosphate; note: key: a ‘+’ indicates a positive result for desired activity; a ‘−’ indicates a negative result for desired activity
Description: as §1

J774.1a macrophage cells [2] = test: Macrophage TNF-α production (Assay 2); assay type: cell-based; conditions: 10 μg/mL test compound, 100 ng/mL LPS, supernatants after 2 hr and 5 hr; note: key: a ‘+’ indicates a positive result for desired activity; a ‘−’ indicates a negative result for desired activity
Description: as §1

MM cell lines = test: In vitro Multiple Myeloma (MM) assay (Assay 7); assay type: cell-based; conditions: viable cell number by trypan blue; [3H]-thymidine; note: key: a ‘+’ indicates a positive result for desired activity; a ‘−’ indicates a negative result for desired activity
Description: as §1

Mast cells = test: Stimulation of mast cells by FcεRI crosslinking (Assay 4); assay type: cell-based; conditions: test compound 30 min prior to DNP-HSA
Description: as §1, with “6-8 week old CD1 mice (University of British Columbia Animal Facility, Vancouver, BC) were sensitized to the hapten DNP by cutaneous application of 25 μL of 0.5% dinitrofluorobenzene (DNFB) (Sigma, Oakville, Ont) in acetone to the shaved abdomen of mice for two consecutive days. 24 hrs later, test substances (dissolved in 10 μL of 1:2 DMSO:MeOH) were painted on the right ear while the left ear received vehicle control. 30 min after drug application, DNFB was applied to both ears to induce mast cell degranulation. A 6 mm punch was taken from the ear and immediately frozen on dry ice for subsequent determination of neutrophil myeloperoxidase (MPO) activity. Assay 6) Mouse endotoxemia model. 6-8 week old C57B16 mice (VCHRI Mammalian Model of Human Disease Core Facility, Vancouver, BC) were orally administered the test compound 30 min prior to an IP injection of 2 mg/kg of LPS (E. Coli serotype 0111:B4, Sigma, Oakville, Ont). Blood was drawn 2 hrs later for determination of plasma TNFα by ELISA. Assay 7) In vitro Mulitple Myeloma (MM) assay.” left out, “exclusion.” for “exclusion. The lines RPMI 8226 and U266 were plated at a density of 1×10^6 cells/mL in 250 μL of medium with various concentrations of the test compound. At day 4, the medium of each culture was replaced by fresh medium containing the same concentration of test compound.”

plasma TNFα = test: Mouse endotoxemia model (Assay 6), plasma TNFα by ELISA; assay type: in vivo, mice; conditions: oral, 30 min prior to IP 2 mg/kg LPS, plasma TNFα 2 hrs later
Description: as §1, with “6-8 week old C57B16 mice (VCHRI Mammalian Model of Human Disease Core Facility, Vancouver, BC) were orally administered the test compound 30 min prior to an IP injection of 2 mg/kg of LPS (E. Coli serotype 0111:B4, Sigma, Oakville, Ont). Blood was drawn 2 hrs later for determination of plasma TNFα by ELISA. Assay 7) In vitro Mulitple Myeloma (MM) assay.” left out, “exclusion.” for “exclusion. The lines RPMI 8226 and U266 were plated at a density of 1×10^6 cells/mL in 250 μL of medium with various concentrations of the test compound. At day 4, the medium of each culture was replaced by fresh medium containing the same concentration of test compound.”

Row | SMILES | Assay 3: Macrophage NO assay, desired activity (J774.1a macrophage cells [1]) | Assay 1: SHIP enzyme assay, desired activity (SHIP enzyme) | Assay 2: Macrophage TNF-α production, desired activity (J774.1a macrophage cells [2]) | Assay 7: In vitro Multiple Myeloma (MM) assay, desired activity (MM cell lines) | Assay 4: Stimulation of mast cells by FcεRI crosslinking, desired activity (Mast cells) | Assay 6: Mouse endotoxemia model, desired activity (plasma TNFα)
1 | COC(=O)c1cc(O)c(O)c2c1[C@]1(C)CCC3C(C)(C)CCC[C@]3(C)[C@H]1C2 (stereo partly drawn) | + | + |  |  |  | 
2 | Cc1cc(OP(=O)(O)O)cc2c1[C@]1(C)CCC3C(C)(C)CCC[C@]3(C)[C@H]1C2 (stereo partly drawn) [Compound 109] | + |  | − | + |  | 
3 | Cc1cc(O)cc2c1[C@]1(C)CCC3C(C)(C)CCC[C@]3(C)[C@@H]1C2 (stereo partly drawn) [Compound 124] | + |  | + | + | + | 
4 | Cc1cc(OC(=O)C(N)Cc2cnc[nH]2)cc2c1[C@]1(C)CCC3C(C)(C)CCC[C@]3(C)[C@H]1C2 (stereo partly drawn) [Compound 123] | + |  | + |  |  | 
5 | COc1cc(C)c2c(c1O)C[C@@H]1[C@@]3(C)CCCC(C)(C)[C@@H]3CC[C@@]21C [Compound 129] | + |  | − |  |  | 
6 | Cc1cc(O)c2c(c1)C[C@@H]1[C@@]3(C)CCCC(C)(C)[C@@H]3CC[C@@]21C [Compound 122] | + |  | − | + |  | 
7 | Cc1cc(OC(=O)C(N)CCCNC(=N)N)cc2c1[C@]1(C)CCC3C(C)(C)CCC[C@]3(C)[C@H]1C2 (stereo partly drawn) [Compound 105] | + |  | + |  |  | 
8 | Cc1cc2c(cc1O)C[C@@H]1[C@@]3(C)CCCC(C)(C)[C@@H]3CC[C@@]21C [Compound 101] | + |  | + | + |  | 
9 | COc1ccc2c(c1O)C[C@@H]1[C@@]3(C)CCCC(C)(C)[C@@H]3CC[C@@]21C [Compound 118] | + |  | − | + |  | 
10 | CC1(C)CCC[C@]2(C)[C@H]3Cc4cc(O)ccc4[C@]3(C)CC[C@@H]12 [Compound 121] | + |  | + | + |  | 
11 | COC(=O)c1cc(O)c(O)c2c1[C@]1(C)CCC3C(C)(C)CCC[C@]3(C)[C@@H]1C2 (stereo partly drawn) | + | + |  |  |  | 
12 | Cc1cc(O)cc2c1[C@@]1(C)CCC3C(C)(C)CCC[C@]3(C)[C@H]1C2 (stereo partly drawn) [Compound 125] | + |  | + | + | + | 
13 | Cc1cc(O)c(O)c2c1[C@@]1(C)CCC3C(C)(C)CCC[C@]3(C)[C@H]1C2 (stereo partly drawn) |  | + |  |  |  | 
14 | CC(=O)Oc1cc(C)c2c(c1)C[C@H]1[C@@]2(C)CCC2C(C)(C)CCC[C@@]21C (stereo partly drawn) [Compound 102] | + |  | + |  |  | 
15 | Cc1cc(OC(=O)C(CC(=O)O)NC(=O)CCC(=O)O)cc2c1[C@]1(C)CCC3C(C)(C)CCC[C@]3(C)[C@H]1C2 (stereo partly drawn) [Compound 114] | + |  | + |  |  | +
16 | CC1(C)CCC[C@@]2(C)C1CC[C@@]1(C)c3c(C(=O)O)cc(O)c(O)c3C[C@@H]12 (stereo partly drawn) | + | + | + |  |  | 
17 | CCc1cc(O)c(O)c2c1[C@]1(C)CCC3C(C)(C)CCC[C@]3(C)[C@H]1C2 (stereo partly drawn) [Compound 18A] | + | + | + |  |  | 
18 | COC(=O)c1cc(O)c(O)c2c1[C@@]1(C)CCC3C(C)(C)CCC[C@]3(C)[C@H]1C2 (stereo partly drawn) | + | + |  |  |  | 
19 | COc1cc(O)cc2c1[C@]1(C)CC[C@H]3C(C)(C)CCC[C@]3(C)[C@H]1C2 [Compound 117] | + |  | + | + |  | 
20 | CC1(C)CCC[C@]2(C)[C@H]3Cc4cc(O)cc(O)c4[C@]3(C)CC[C@@H]12 [Compound 115] |  |  |  | + |  | 
